Measurements: article PMC7356696, “Synthesis, Antimicrobial Activity and Molecular Docking of Novel Thiourea Derivatives Tagged with Thiadiazole, Imidazole and Triazine Moieties as Potential DNA Gyrase and Topoisomerase IV Inhibitors” (Molecules, 2020)
Converted amounts (≈) assume the structure as drawn.

How the values were obtained:
[1] = tested on: Bacillus subtilis ATCC 6633; assay: Agar well diffusion, inhibition zone; format: cell-based; parameters: dose or concentration left out as unconfirmed; details: ATCC6633, B. subtilis ATCC 6633, NA = No Activity, read-out: Mean Diameter of Inhibition Zone (Mean ± SEM)
Source text: (§1) The antimicrobial activity of all synthesized compounds 2–13 was screened against a panel of two Gram-positive bacteria (Staphylococcus aureus ATCC 29213 and Bacillus subtilis ATCC 6633), two Gram-negative bacteria (Escherichia coli ATCC 25922, Pseudomonas aeruginosa ATCC 27853) and two fungi (Candida albicans ATCC 10231 and Aspergillus flavus ATCC 46283) using the agar well diffusion method. Ciprofloxacin and clotrimazole were used as antibacterial and antifungal standards, respectively. The results of this study were recorded as the average diameter of the inhibition zones (IZ) in Table 1. […] Additionally, the promising activity against S. aureus was observed from compounds 9, 12 and 13, however against B. subtilis from compounds 12 and 13.
(§2) The antimicrobial assay was performed in vitro for the target compounds 2–13 against Staphylococcus aureus ATCC 29213, Bacillus subtilis ATCC 6633 as Gram-positive bacteria, Escherichia coli ATCC 25922, Pseudomonas aeruginosa ATCC 27853 as Gram-negative bacteria and Candida albicans ATCC 10231, Aspergillus flavus ATCC 46283 as fungi. At the first, 100 μL of the test bacteria/fungi were grown in 10 mL of fresh media until they reached a count of approximately 10^8 cells/ml for bacteria or 10^5 cells/mL for fungi. […] The plates were incubated for 24 h at 37 °C (for bacteria and yeast) and for 72 h at 27 °C (for filamentous fungi), each test was repeated three times. After incubation, the microorganism’s growth was observed. Ciprofloxacin and clotrimazole were used as standard antibacterial and antifungal drugs, respectively. The resulting inhibition zone diameters were measured in millimeters using the diffusion technique. […] The different concentrations (triplicate) of each compound were tested and compared with standard drugs.

[2] = tested on: Staphylococcus aureus ATCC 29213; assay: Agar well diffusion, inhibition zone; format: cell-based; parameters: dose or concentration left out as unconfirmed; details: ATCC29213, S. aureus ATCC 29213, NA = No Activity, read-out: Mean Diameter of Inhibition Zone (Mean ± SEM)
Source text: as §1, §2

[3] = tested on: Aspergillus flavus ATCC 46283; assay: Agar well diffusion, inhibition zone; format: cell-based; parameters: dose or concentration left out as unconfirmed; details: ATCC46283, A. flavus ATCC 46283, NA = No Activity, read-out: Mean Diameter of Inhibition Zone (Mean ± SEM)
Source text: as §1
(§3) The antimicrobial assay was performed in vitro for the target compounds 2–13 against Staphylococcus aureus ATCC 29213, Bacillus subtilis ATCC 6633 as Gram-positive bacteria, Escherichia coli ATCC 25922, Pseudomonas aeruginosa ATCC 27853 as Gram-negative bacteria and Candida albicans ATCC 10231, Aspergillus flavus ATCC 46283 as fungi. At the first, 100 μL of the test bacteria/fungi were grown in 10 mL of fresh media until they reached a count of approximately 10^8 cells/ml for bacteria or 10^5 cells/mL for fungi. […] of each sample (at 0.5 mg/mL) was added to each well (10 mm diameter holes cut in the agar gel). The plates were incubated for 24 h at 37 °C (for bacteria and yeast) and for 72 h at 27 °C (for filamentous fungi), each test was repeated three times. After incubation, the microorganism’s growth was observed. Ciprofloxacin and clotrimazole were used as standard antibacterial and antifungal drugs, respectively. The resulting inhibition zone diameters were measured in millimeters using the diffusion technique. […] The different concentrations (triplicate) of each compound were tested and compared with standard drugs.

[4] = tested on: Candida albicans ATCC 10231; assay: Agar well diffusion, inhibition zone; format: cell-based; parameters: dose or concentration left out as unconfirmed; details: ATCC10231, C. albicans ATCC 10231, NA = No Activity, read-out: Mean Diameter of Inhibition Zone (Mean ± SEM)
Source text: as §1, §3

[5] = tested on: Pseudomonas aeruginosa ATCC 27853; assay: Agar well diffusion, inhibition zone; format: cell-based; parameters: dose or concentration left out as unconfirmed; details: ATCC27853, P. aeruginosa ATCC 27853, NA = No Activity, read-out: Mean Diameter of Inhibition Zone (Mean ± SEM)
Source text: as §1, §3

[6] = tested on: Aspergillus flavus ATCC 46283; assay: MIC, modified agar well diffusion method; format: cell-based; details: ATCC46283, A. flavus ATCC 46283, read-out: MIC (Mean ± SEM)
Source text: as §1, §3

[7] = tested on: Bacillus subtilis ATCC 6633; assay: MIC, modified agar well diffusion method; format: cell-based; details: ATCC6633, B. subtilis ATCC 6633, read-out: MIC (Mean ± SEM)
Source text: as §1, §3

[8] = tested on: Candida albicans ATCC 10231; assay: MIC, modified agar well diffusion method; format: cell-based; details: ATCC10231, C. albicans ATCC 10231, read-out: MIC (Mean ± SEM)
Source text: as §1, §3

[9] = tested on: Pseudomonas aeruginosa ATCC 27853; assay: MIC, modified agar well diffusion method; format: cell-based; details: ATCC27853, P. aeruginosa ATCC 27853, read-out: MIC (Mean ± SEM)
Source text: as §1, §3

[10] = tested on: Staphylococcus aureus ATCC 29213; assay: MIC, modified agar well diffusion method; format: cell-based; details: ATCC29213, S. aureus ATCC 29213, read-out: MIC (Mean ± SEM)
Source text: as §1, §3

[11] = MTT assay for cytotoxic activity; format: cell-based; details: African green monkey, Vero cells (normal kidney epithelial cell line), read-out: IC50 (Mean ± SEM), cytotoxic activity
Source text: (§4) The results are expressed as IC50 values (µM) and are depicted in Table 3.

[12] = tested on: human breast cancer (MCF-7) cells; assay: MTT assay for cytotoxic activity; format: cell-based; details: Homo sapiens, MCF7, MCF-7 cells, read-out: IC50 (Mean ± SEM), cytotoxic activity
Source text: as §4

[13] = tested on: Escherichia coli ATCC 25922; assay: Agar well diffusion, inhibition zone; format: cell-based; parameters: dose or concentration left out as unconfirmed; details: ATCC25922, E. coli ATCC 25922, NA = No Activity, read-out: Mean Diameter of Inhibition Zone (Mean ± SEM)
Source text: as §1, §3

[14] = tested on: Escherichia coli ATCC 25922; assay: MIC, modified agar well diffusion method; format: cell-based; details: ATCC25922, E. coli ATCC 25922, read-out: MIC (Mean ± SEM)
Source text: as §1, §3

[15] = tested on: Staphylococcus aureus DNA gyrase; parameters: method as in PMID 25792505; details: cited from earlier work
[16] = biological target: T1, dihydrofolate reductase (DHFR) (Homo sapiens, UniProt P00374); parameters: method as in PMID 23792351; details: cited from earlier work
T1 construct: purchased Bio Vision
T1 sequence (P00374 1-187): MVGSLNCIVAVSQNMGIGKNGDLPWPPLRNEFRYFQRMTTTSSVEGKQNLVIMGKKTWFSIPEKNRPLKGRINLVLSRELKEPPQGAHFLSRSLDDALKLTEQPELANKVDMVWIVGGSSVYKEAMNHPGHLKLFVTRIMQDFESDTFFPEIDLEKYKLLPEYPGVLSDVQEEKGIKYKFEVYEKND

MIC [6] [µg/mL]	MIC [7] [µg/mL]	MIC [8] [µg/mL]	MIC [9] [µg/mL]	MIC [10] [µg/mL]	MIC [14] [µg/mL]	SMILES	zone of inhibition [1] [mm]	zone of inhibition [2] [mm]	zone of inhibition [3] [mm]	zone of inhibition [4] [mm]	zone of inhibition [5] [mm]	IC50 [11] [µM]	IC50 [12] [µM]	zone of inhibition [13] [mm]	IC50 [15] [µM]	fold more active than the positive control methotrexate as DHFR inhibitor [16] [fold]
20.4 ± 0.3 (≈ 79.2 µM)	8.6 ± 0.25 (≈ 33.3 µM)	94 ± 0.1 (≈ 364 µM)	17.6 ± 0.2 (≈ 68.2 µM)	9.92 ± 0.3 (≈ 38.4 µM)		O=c1cc2nc(Cc3ccccc3)[nH]c(=S)n2[nH]1 [Compound 9, 2-Benzyl-3,4-dihydro-4-thioxopyrazolo[1,5-a][1,3,5]triazin-7(6H)-one]	18 ± 0.25	21 ± 0.3	15 ± 0.33	9 ± 0.2	9 ± 0.25	62.45 ± 0.2	26.4 ± 0.46			
						N#CCc1nnc(NC(=O)Cc2ccccc2)s1 [Compound 10, N-(5-(Cyanomethyl)-1,3,4-thiadiazol-2-yl)-2-phenylacetamide]	12 ± 0.21	15 ± 0.42	6 ± 0.41		6 ± 0.02					
						N=c1oc2ccccc2cc1-c1nnc(NC(=O)Cc2ccccc2)s1 [Compound 11, N-(5-(2-Imino-2H-chromen-3-yl)-1,3,4-thiadiazol-2-yl)-2-phenylacetamide]	6 ± 0.53	12 ± 0.3								
15.6 ± 0.01 (≈ 35.4 µM)	2.3 ± 0.05 (≈ 5.22 µM)	85 ± 0.15 (≈ 193 µM)	12.5 ± 0.2 (≈ 28.4 µM)	5.22 ± 0.03 (≈ 11.8 µM)	27 ± 0.02 (≈ 61.3 µM)	O=C(Cc1ccccc1)NC(=S)N1NC(=O)C(=Cc2ccccc2)N=C1c1ccccc1 [Compound 12, 5-Benzylidene-5,6-dihydro-N-(1-hydroxy-2-phenylethylidene)-6-oxo-3-phenyl-1,2,4-triazine-2(1H)-carbothioamide]	23 ± 0.01	22 ± 0.05	18 ± 0.03	14 ± 0.21	17 ± 0.2	79.19 ± 0.28	35.9 ± 0.85	5 ± 0.58		
14.6 ± 0.2 (≈ 32.6 µM)	2.72 ± 1.11 (≈ 6.09 µM)	83 ± 0.22 (≈ 186 µM)	13.41 ± 0.1 (≈ 30 µM)	5.6 ± 0.15 (≈ 12.5 µM)	33 (≈ 73.9 µM)	O=C(Cc1ccccc1)Nc1nnc(C(=Cc2cccs2)NC(=O)c2ccccc2)s1 [Compound 13, N-(1-(5-(2-Phenylacetamido)-1,3,4-thiadiazol-2-yl)-2-(thiophen-2-yl)vinyl)benzamide]	24 ± 1.11	21 ± 0.1	18 ± 0.22	12 ± 0.46	15 ± 0.11	84.11 ± 0.32	37.7 ± 0.93	6 ± 0.15		
						Cc1occc1C(=O)NNC(=S)NC(=O)c1ccccc1 [I]									14.6	
						COc1ccc(NC(=S)Nc2nc(-c3nnc(S)n3-c3ccc(OC)cc3OC)cs2)c(OC)c1 [V]										2.7
